Data taken from PMC7281206, “Cysteine Cathepsins Inhibition Affects Their Expression and Human Renal Cancer Cell Phenotype” (Cancers, 2020).
*: point of attachment. CH2F = FC*

Key:
[1] = test system: human recombinant CtsL; test: Fluorescent protease activity assay, recombinant CtsL; assay type: biochemical; conditions: 20 nM CtsL, 50 μM Ac-PLVQ-AMC, inhibitor 2 μM; 0.1 M sodium acetic buffer pH 4.6, 12 min, Ex/Em 353/442 nm
Description: Ac-PLVE-FMK and Ac-VLPE-FMK inhibitory properties were evaluated against human recombinant CtsL and B. These recombinant enzymes were expressed in E. coli via plasmid transformation and further purification, using nickel-nitrilotriacetic acid (Ni-NTA) sepharose. Gel zymography assay was used to provide a preliminary evaluation of the ability of these recombinant proteins to degrade the gelatin substrate previously embedded in the gel (Supplementary Figure S1). Following Coomassie staining, the Cts were detectable as single bands. As expected, a translucent area was evident, due to the substrate digestion in the proximity of the proteins. Then, the recombinant proteins were tested for their ability to digest the Triticain-α substrate Ac-PLVQ via fluorescent protease activity assay, previously optimized by our group. This probe was conjugated with the fluorogenic chromophore 7-amino-4-methylcoumarin (Ac-PLVQ-AMC). After proteolytic cleavage, it emits a detectable fluorescent signal.
Total RNA extract from retinoblastoma […] cells was used to obtain cDNA. A pair of oligonucleotides ([…] and […]) was used for the amplification of DNA fragment containing CtsB, the product of which was ligated into pET15b (Merck Millipore, Billerica, MA, USA) using NdeI and XhoI. DNA fragment containing CtsL was amplified using a pair of oligonucleotides ([…] and […]) and ligated into pET28a (+) (Merck Millipore, Billerica, MA, USA) using NheI and HindIII. […]
The activity of recombinant CtsL and B was detected by the hydrolysis of the fluorogenic substrate Ac-Pro-Leu-Val-Gln- 7-amino-4-methylcoumarin (AMC) (Pepmic Suzhou Jiangsu, China). […] The substrate was added to a final concentration of 50 μM, and its hydrolysis was continuously measured for 12 min using a CLARIOstar® Plus plate reader (BMG Labtech Ortenberg Baden-Württemberg, Germany) at excitation and emission wavelengths of 353 and 442 nm, respectively.

[2] = test system: 769-P cells; test: Cell viability/proliferation (MTT), 769-P; assay type: cell-based, human; conditions: 2.5–250 μM; for Cell viability: 72 h; for Effect on cell proliferation: within 48 h
Description: Figure 3 The effect of the peptide inhibitors on human 769-P and A498 renal cancer cell proliferation and proteolytic activity. (a) 769-P and (b) A498 cells were treated with increasing doses of Ac-PLVE-FMK (red bars) and Ac-VLPE-FMK (blue bars) (2.5–250 μM). Cell proliferation was measured after 24, 48, and 72 h via MTT (3-(4,5-dimethylthiazol-2-yl)-2,5-diphenyltetrazolium bromide) assay. Data represent the mean (±S.D.) of at least three independent experiments, each performed in triplicate. (c) Fluorescence microscopy evaluation and quantification of the cell proteolytic activity in 769-P and (d) A498 cells towards the fluorogenic substrate Ac-PLVQ-AMC in the absence or presence of Ac-PLVE-FMK and Ac-VLPE-FMK. The cells were seeded in a 96-well plate and after exposure to the peptides for 30 min prior incubation with the fluorescent substrate Ac-PLVQ-AMC for 10 min. Data are expressed as mean (±S.D.), and significance was calculated through one-way ANOVA followed by Dunnet’s test. * = p < 0.05, ** = p < 0.01, *** = p < 0.001.
The human renal cancer cell line lines […], A498 were obtained from Dr. Vadim Pokrovsky (purchased from American Type Culture Collection). The cells were cultured in RPMI 1640, supplemented with 10% fetal bovine serum and 1% mixture of antibiotics penicillin-streptomycin (all from Gibco, Waltham, MA, USA) at 5% CO2 and 37 °C in a humidified chamber. Cells were grown to confluence and harvested by trypsinization, using a 0.25 mg/mL trypsin/EDTA solution (ThermoFisher, Carlsbad, CA, USA) and resuspended in the fresh culture medium. Viable cells were enumerated on the Countess II FL Automated Cell Counter (ThermoFisher, Waltham, MA, USA), following Trypan Blue staining. The cell lines were tested for mycoplasma contamination regularly, using the Molecular Probes™ MycoFluor Mycoplasma Detection Kit (ThermoFisher, Waltham, MA, USA).
The cell number was evaluated by counting viable cells using the MTT (3-(4,5-dimethylthiazol-2-yl)-2,5-diphenyltetrazolium bromide) colorimetric assay. A total of 2 × 10^4 cells/well were seeded on independent 96-well plates for each time point (0, 24, 48, and 72 h), with five replicates and treated with two inhibitors (2.5–250 μM). Then, 10 µL of the MTT reagent was added to each well, and cells were incubated for another 5 h. Next, the absorbance value was measured using a CLARIOstar® Plus plate reader (BMG Labtech, Ortenberg, Germany) at 490 nm. Triplicate wells were assayed, and S.D.s were determined.

[3] = test system: 769-P cells (proteolytic activity); test: Cell proteolytic activity towards Ac-PLVQ-AMC, 769-P; assay type: cell-based, human; conditions: 30 min peptide, then 10 min Ac-PLVQ-AMC; fluorescence microscopy and fluorimetric analysis
Description: To evaluate the inhibitory properties of the peptides directly on the human renal cancer cells, we firstly assessed the impact of Ac-PLVE-FMK and Ac-VLPE-FMK on the cell viability of 769-P and A498 cells to determine the working concentrations for further experiments. […] Further experiments were performed using a concentration of 20 μM. To understand if the peptides could affect the activity of caspase proteases, we tested their effect on cell viability in combination with the chemotherapeutic paclitaxel (PXT) in both the cell lines. […] Next, we evaluated the effect of the peptides on renal cancer cell proteolytic activity against the fluorogenic probe Ac-PLVQ-AMC. In this case, 769-p and A498 cells were treated for 30 min with Ac-PLVE-FMK or Ac-VLPE-FMK and were then exposed for 10 min to the substrate Ac-PLVQ-AMC prior fluorescence microscopy analysis (Figure 3c,d).
Figure 3 The effect of the peptide inhibitors on human 769-P and A498 renal cancer cell proliferation and proteolytic activity. […] Cell proliferation was measured after 24, 48, and 72 h via MTT (3-(4,5-dimethylthiazol-2-yl)-2,5-diphenyltetrazolium bromide) assay. […] (c) Fluorescence microscopy evaluation and quantification of the cell proteolytic activity in 769-P and (d) A498 cells towards the fluorogenic substrate Ac-PLVQ-AMC in the absence or presence of Ac-PLVE-FMK and Ac-VLPE-FMK. […]

[4] = test system: A498 cells (endolysosomal compartment); test: Neutral red assay (endolysosomal integrity), A498; assay type: cell-based, human; conditions: 2.5–250 μM; 48 h
Description: Figure S6. The effect of the peptide inhibitors on human 769‐P and A498 renal cancer cell on
lysosomes integrity. (a) 769‐P and (b) A498 cells were treated with increasing doses of Ac‐PLVE‐FMK
(red bars) and Ac‐VLPE‐FMK (blue bars) (2.5–250 μM). NR uptake was measured after 24, 48, and 72
h via MTT assay. (c) LysoTracker red evaluation in 769‐P and (d) A498 cells after 24, 48, and 72 h with
the inhibitors (20 μM). Data represent the mean (± S.D.) of at least three independent experiments,
each performed in triplicate.

In the case of Ac-PLVE-CH2F [Ac-PLVE-FMK], the “Inhibition of Ac-PLVQ-AMC cleavage (fluorescent signal)” value [1] is reported as “the intensity of the fluorescent signal was significantly affected”, the Cell viability [2] is reported as “cell viability increased, reaching values not significantly different from the control cells” and the “Effect on cell proliferation” value [2] is reported as “cytostatic properties on both cell lines only within 48 h of treatment”. The “Inhibition of probe degradation (cell proteolytic activity)” value [3] was “significantly inhibited the probe degradation” and the Neutral red uptake [4] was “decreasing”.

In the case of Ac-VLPE-CH2F [Ac-VLPE-FMK], the “Inhibition of Ac-PLVQ-AMC cleavage (fluorescent signal)” value [1] is reported as “the intensity of the fluorescent signal was significantly affected”, the Cell viability [2] is reported as “cell viability increased, reaching values not significantly different from the control cells” and the “Effect on cell proliferation” value [2] is reported as “cytostatic properties on both cell lines only within 48 h of treatment”. The “Inhibition of probe degradation (cell proteolytic activity)” value [3] was “significantly inhibited the probe degradation” and the Neutral red uptake [4] was “decreasing”.
